The record followed here is patent US20150051202A1, “TRIAZOLOPYRAZINE DERIVATIVES” (Merck Patent GmbH, priority 2012, published 2015).

Assay [1] concerns the target GCN2 (Homo sapiens, UniProt Q9P2K8). The experiment in a line: GCN2 enzyme assay (TR-FRET Lanthascreen, GFP-eIF2alpha substrate). Type of assay: biochemical. From the text: GCN2: Assay Principle & Conditions
This assay can quantificate the activity of the serin kinase GCN2 (general control non-derepressible-2).
This kinase is involved in the stress metabolism of cells. It is activated upon starvation (amino acid depletion). Its natural substrate is eIF2a (eukaryotic initiation factor 2 alpha subunit), a translation factor, which gets activated (phosphorylated) by GCN2 in case of an amino acid bottleneck in the cells. This in turn leads to a halt of the protein synthesis. Inhibition of GCN2 results in stopping this mechanism: The cell can not stop protein production upon “starvation” stress.
The assay is run in two steps: the enzymatic reaction and the detection step. In the first step GCN2 is incubated with 10 μM ATP and 80 nM of the GFP-labelled substrate eIF2alpha at room temperature.
The enzymatic reaction is stopped by addition of EDTA. The amount of phosphorylated eIF2alpha is determined by TR-FRET (Lanthascreen): A complex is formed consisting of antibody and GFP labelled phospho-eIF2a, which allows a FRET upon exitation at 340 nm.
Final Concentrations in the Enzymatic Reaction • Hepes, pH 7.0 50 mM • MgCl2 10 mM • MnCl2 5 mM • BSA 0.1% • DMSO 1% • ATP 10 uM • DTT 2 mM • GFP-eIF2a 80 nM (substrate) • GCN2 30 nM (enzyme)
In general terms: TR-FRET usually uses a lanthanide donor and a delayed reading to cut background.

The target in assay [2] is T1, SYK (Homo sapiens, UniProt P43405).
T1 construct: purchased BPS Bioscience, CA, USA
Briefly: SYK enzyme assay (Flash plate assay / Caliper mobility shift assay). Type of assay: biochemical. The note with it: for SYK (enzyme assay) % at 3 μM: 100% corresponds to zero effect, −50% corresponds to IC50. The method, then:
The kinase assay is performed either as 384-well Flashplate assay (for e.g. Topcount measurement) or as 384-well Image-Flashplate assay (for LEADseeker measurement).
2.5 nM SYK, 400 nM Biotin-Aha-Aha-[…]
and 10 μM ATP (spiked with 0.3 μCi 33P-ATP/well) are incubated in a total volume of 50 μl (60 mM Hepes, 10 mM MgCl2, 1.2 mM Dithiothreitol, 0.02% Brij35, 0.1% BSA, pH 7.5) with or without test compound for 1 hours at 30° C. The reaction is stopped with 25 μl 200 mM EDTA. After 30 Min at 30° C. the liquid is removed and each well washed thrice with 100 μl 0.9% sodium chloride solution. Non-specific reaction is determined in presence of 0.1 μM Staurosporine. Radioactivity is measured with Topcount (when using Flashplates) or with LEADseeker (when using Image-Flashplates) respectively. Results (e.g. IC50-values) are calculated with program tools provided by the IT-department (e.g. Symyx Assay Explorer, Genedata Screener).
Enzymatic Assays Using the Caliper LifeSciences Technology
The assays described here are performed on the Caliper Life Sciences LC3000 system This technology provides data on enzyme activity via measurement of the relative amounts of phosphorylated or unphosphorylated fluorescently labelled substrate peptide at the end of an enzymatic reaction.
These different states of peptide are resolved by applying a potential difference across the sample. The presence of the charged phosphate group on the product (as opposed to the substrate) causes a different peptide mobility between the two peptides. This is visualized by excitation of the fluorescent label on the substrate and product peptides and represented as peaks within the analysis software.
In order to measure inhibitor activity of kinase inhibitors on this technology, a TTP Mosquito liquid handling instrument is used to place 0.25 ul of the appropriate concentration of inhibitor in 100% DMSO (for a dose response curve calculation) into each well of a 384-well plate. To this reaction components are added to a final volume of 25 ul. The table below indicates the sequences and concentrations for the assays described in this report. Standard components are 1 mM DTT (Sigma, D0632), 1 mM MgCl2 (Sigma, M1028), 100 mM HEPES pH 7.5 (Calbiochem, 391338), 0.015% Brij-35 (Sigma, B4184).
The reaction is incubated for 90 min at 25 C, and then stopped by the addition of 70 ul of Stop buffer (100 mM HEPES pH 7.5, 0.015% Brij-35, 10 mM EDTA (Sigma, E7889)).
The plate is read on a Caliper LC 3000 in an Off-Chip mobility shift assay format, on a 12-sipper chip. Unphosphorylated substrate and phosphorylated product peptide resolve as separate peaks allowing direct measurement of percentage of conversion of substrate to product. The percent conversion can be plotted against concentration of inhibitor to produce a sigmoidal dose response curve, from which an IC50 can be calculated using GeneData Condoseo or a similar product.

Molecules are shown by their SMILES. A value given as a limit tells only on which side of the number the result lay.

GCN2, sequence (Q9P2K8 whole entry): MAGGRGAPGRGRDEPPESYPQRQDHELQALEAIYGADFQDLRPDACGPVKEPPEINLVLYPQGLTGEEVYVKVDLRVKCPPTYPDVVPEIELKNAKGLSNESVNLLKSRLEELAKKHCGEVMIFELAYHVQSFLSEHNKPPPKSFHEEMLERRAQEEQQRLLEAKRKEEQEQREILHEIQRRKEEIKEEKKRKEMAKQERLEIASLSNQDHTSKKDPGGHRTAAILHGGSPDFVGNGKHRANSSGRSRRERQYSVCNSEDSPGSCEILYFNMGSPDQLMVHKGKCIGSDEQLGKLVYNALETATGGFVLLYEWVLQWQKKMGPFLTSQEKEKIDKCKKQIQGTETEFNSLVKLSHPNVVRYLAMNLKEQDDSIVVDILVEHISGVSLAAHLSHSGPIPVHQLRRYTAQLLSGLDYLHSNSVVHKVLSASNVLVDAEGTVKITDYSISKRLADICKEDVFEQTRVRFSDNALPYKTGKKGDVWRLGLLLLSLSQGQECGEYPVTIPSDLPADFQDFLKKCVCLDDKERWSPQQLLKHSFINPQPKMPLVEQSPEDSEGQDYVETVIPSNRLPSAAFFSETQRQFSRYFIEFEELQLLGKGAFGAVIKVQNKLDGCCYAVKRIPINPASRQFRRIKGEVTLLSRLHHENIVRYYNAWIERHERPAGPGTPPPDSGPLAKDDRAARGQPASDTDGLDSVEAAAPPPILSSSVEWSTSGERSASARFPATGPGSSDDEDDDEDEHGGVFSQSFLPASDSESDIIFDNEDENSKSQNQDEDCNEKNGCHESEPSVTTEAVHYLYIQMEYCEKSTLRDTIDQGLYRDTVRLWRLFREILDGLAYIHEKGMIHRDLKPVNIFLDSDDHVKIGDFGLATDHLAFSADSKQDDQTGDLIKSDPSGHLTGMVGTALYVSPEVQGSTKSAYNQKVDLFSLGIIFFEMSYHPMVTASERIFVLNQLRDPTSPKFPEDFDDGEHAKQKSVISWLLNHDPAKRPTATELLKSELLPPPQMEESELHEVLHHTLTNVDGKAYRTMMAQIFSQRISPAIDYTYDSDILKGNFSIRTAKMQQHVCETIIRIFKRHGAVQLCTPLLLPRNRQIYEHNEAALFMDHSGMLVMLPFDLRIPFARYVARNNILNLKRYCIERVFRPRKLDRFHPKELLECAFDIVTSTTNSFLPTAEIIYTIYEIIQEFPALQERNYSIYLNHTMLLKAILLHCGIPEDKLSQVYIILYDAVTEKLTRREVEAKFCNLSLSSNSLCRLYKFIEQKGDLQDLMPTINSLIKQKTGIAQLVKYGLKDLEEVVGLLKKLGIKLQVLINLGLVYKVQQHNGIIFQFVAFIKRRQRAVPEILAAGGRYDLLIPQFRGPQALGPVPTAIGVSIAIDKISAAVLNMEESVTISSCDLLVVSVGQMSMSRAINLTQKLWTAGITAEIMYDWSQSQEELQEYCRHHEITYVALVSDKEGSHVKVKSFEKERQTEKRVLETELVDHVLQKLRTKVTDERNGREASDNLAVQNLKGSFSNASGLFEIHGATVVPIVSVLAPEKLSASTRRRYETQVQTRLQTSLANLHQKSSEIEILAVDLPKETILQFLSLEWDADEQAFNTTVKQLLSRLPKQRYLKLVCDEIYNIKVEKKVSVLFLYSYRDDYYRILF

For orientation: IC50 means the concentration at which inhibition is half-maximal. For the compound `COc1cc(Nc2nc3cncc(-c4ccc(O)cc4)n3n2)ccc1N1CCN(C)CC1` [Compound A87, 4-{2-[3-methoxy-4-(4-methyl-piperazin-1-yl)-phenylamino]-[1,2,4]triazolo[1,5-a]pyrazin-5-yl}-phenol], the IC50 in assay [1] and in assay [2] was < 1000 nM in each case.
Turning to `Cn1cc(-c2c(-c3ccccc3)ncc3nc(Nc4ccc(N5CCOCC5)cc4)nn23)cn1` [Compound A45, [5-(1-methyl-1H-pyrazol-4-yl)-6-phenyl-[1,2,4]triazolo[1,5-a]pyrazin-2-yl]-(4-morpholin-4-yl-phenyl)-amine], the “GCN2 (enzyme assay) % at 10 μM” value in assay [1] (at 10 μM, 100% corresponds to zero effect, −50% corresponds to IC50) is 2@10%. For the same compound, the 50% inhibitory concentration (IC50) in assay [2] was < 1000 nM.
In the case of `CN1CCN(c2ncc(Nc3nc4cncc(-c5cnn(C)c5)n4n3)cn2)CC1` [Compound A88, [2-(4-methyl-piperazin-1-yl)-pyrimidin-5-yl]-[5-(1-methyl-1H-pyrazol-4-yl)-[1,2,4]triazolo[1,5-a]pyrazin-2-yl]-amine], the concentration for half-maximal inhibition (IC50) in assay [1] was < 1000 nM. For the same compound, the “SYK (enzyme assay) % at 3 μM” value in assay [2] is given as −13@3%.
In the case of `CC1(C)C(=O)Nc2cc(Nc3nc4cncc(-c5cnc6ccccc6c5)n4n3)ccc21` [Compound A9, 3,3-dimethyl-6-(5-quinolin-3-yl-[1,2,4]triazolo[1,5-a]pyrazin-2-ylamino)-1,3-dihydro-indol-2-one], the IC50 in assay [1] and in assay [2] was 1000 to 5000 nM each time.
Turning to `Cc1cc(Nc2nc3cncc(-c4cnn(C)c4)n3n2)ccc1C(=O)NC1CC1` [Compound A71, N-cyclopropyl-2-methyl-4-[5-(1-methyl-1H-pyrazol-4-yl)-[1,2,4]triazolo[1,5-a]pyrazin-2-ylamino]-benzamide], the half-inhibitory concentration (IC50) is < 1000 nM in assay [1] and 1000 to 5000 nM in assay [2].
In the same order, the values of `COc1ccc(-c2cncc3nc(Nc4ccc(N5CCN(C)CC5)c(OC)c4)nn23)cc1` [Compound A92, [3-methoxy-4-(4-methyl-piperazin-1-yl)-phenyl]-[5-(4-methoxy-phenyl)-[1,2,4]triazolo[1,5-a]pyrazin-2-yl]-amine] are < 1000 nM and < 1000 nM.
`Cc1cc(Nc2nc3cncc(-c4cnn(CCC(C)C)c4)n3n2)ccc1N1CCN(C)CC1` [Compound A51, {5-[1-(3-methyl-butyl)-1H-pyrazol-4-yl]-[1,2,4]triazolo[1,5-a]pyrazin-2-yl}-[3-methyl-4-(4-methyl-piperazin-1-yl)-phenyl]-amine]: the IC50 in assay [1] and in assay [2] was < 1000 nM each time.
As to `c1cc(N2CCOCC2)ccc1Nc1nc2cncc(-c3ccc(CN4CCOCC4)s3)n2n1` [Compound A62, [5-(5-morpholin-4-ylmethyl-thiophen-2-yl)-[1,2,4]triazolo[1,5-a]pyrazin-2-yl]-(4-morpholin-4-yl-phenyl)-amine], the IC50 in assay [1] was < 1000 nM. Besides, the “SYK (enzyme assay) % at 3 μM” value in assay [2] is listed as −5@3%.
As to `CN(C)Cc1nc2cc(Nc3nc4cncc(-c5cnc6ccccc6c5)n4n3)ccc2[nH]1` [Compound A10, (2-dimethylaminomethyl-1H-benzoimidazol-5-yl)-(5-quinolin-3-yl-[1,2,4]triazolo[1,5-a]pyrazin-2-yl)-amine], the values for the concentration for half-maximal inhibition (IC50) in assay [1] and in assay [2] were < 1000 nM and 1000 to 5000 nM, respectively.
In turn, `COc1cc(N2CCN(C)CC2)ccc1Nc1nc2cncc(-c3cnn(C)c3)n2n1` [Compound A79, [2-methoxy-4-(4-methyl-piperazin-1-yl)-phenyl]-[5-(1-methyl-1H-pyrazol-4-yl)-[1,2,4]triazolo[1,5-a]pyrazin-2-yl]-amine] showed an IC50 in assay [1] of 5000 to 10000 nM. For the same compound, the “SYK (enzyme assay) % at 3 μM” value in assay [2] is −9@3%.
For the compound `Cn1cc(-c2cncc3nc(Nc4ccc(C(=O)N5CCOCC5)cc4)nn23)cn1` [Compound A66, {4-[5-(1-methyl-1H-pyrazol-4-yl)-[1,2,4]triazolo[1,5-a]pyrazin-2-ylamino]-phenyl}-morpholin-4-yl-methanone], the figures for the IC50 in assay [1] and in assay [2] were < 1000 nM and 1000 to 5000 nM, respectively.
The corresponding values for `Cc1cc(Nc2nc3cncc(-c4cnc5ccccc5c4)n3n2)ccc1N1CCN(C)CC1` [Compound A8, [3-methyl-4-(4-methyl-piperazin-1-yl)-phenyl]-(5-quinolin-3-yl-[1,2,4]triazolo[1,5-a]pyrazin-2-yl)-amine] are 1000 to 5000 nM and 1000 to 5000 nM.
As to `c1cc(N2CCOCC2)ccc1Nc1nc2cncc(-c3cn[nH]c3)n2n1` [Compound A31, (4-morpholin-4-yl-phenyl)-[5-(1H-pyrazol-4-yl)-[1,2,4]triazolo[1,5-a]pyrazin-2-yl]-amine], the half-maximal inhibitory concentration (IC50) in assay [1] is 1000 to 5000 nM; in assay [2], < 1000 nM.
As to `Cn1ncc2cc(-c3cncc4nc(Nc5ccc6c(c5)NC(=O)C6(C)C)nn34)ccc21` [Compound A5, 3,3-dimethyl-6-[5-(1-methyl-1H-indazol-5-yl)-[1,2,4]triazolo[1,5-a]pyrazin-2-ylamino]-1,3-dihydro-indol-2-one], the half-inhibitory concentration (IC50) in assay [1] is 1000 to 5000 nM; in assay [2], < 1000 nM.
In the case of `COc1cc(Nc2nc3cncc(-c4ccc(NS(C)(=O)=O)cc4)n3n2)ccc1N1CCN(C)CC1` [Compound A93, N-(4-{2-[3-methoxy-4-(4-methyl-piperazin-1-yl)-phenylamino]-[1,2,4]triazolo[1,5-a]pyrazin-5-yl}-phenyl)-methanesulfonamide], the concentration for half-maximal inhibition (IC50) in assay [1] was < 1000 nM; in assay [2] it was 1000 to 5000 nM.
On to `COc1cc(Nc2nc3cncc(-c4ccc(N5CCOCC5)cc4)n3n2)ccc1N1CCN(C)CC1` [Compound A91, [3-methoxy-4-(4-methyl-piperazin-1-yl)-phenyl]-[5-(4-morpholin-4-yl-phenyl)-[1,2,4]triazolo[1,5-a]pyrazin-2-yl]-amine], for which the IC50 in assay [1] is < 1000 nM; in assay [2], 1000 to 5000 nM.
`Cn1cc(-c2cncc3nc(NC(=O)C4CCNCC4)nn23)cn1` [Compound A74, piperidine-4-carboxylic acid [5-(1-methyl-1H-pyrazol-4-yl)-[1,2,4]triazolo[1,5-a]pyrazin-2-yl]-amide] had a 50% inhibitory concentration (IC50) in assay [1] of 5000 to 10000 nM. For the same compound, the “SYK (enzyme assay) % at 3 μM” value in assay [2] is 4@3%.
The corresponding values for `COc1cccc(Nc2nc3cnc(Br)cn3n2)c1` [Compound A22] are < 1000 nM and −15@3%.
Consider `Cc1cc(Nc2nc3cncc(-c4cnn(C)c4)n3n2)ccc1NC(=O)C1CCNCC1` [Compound A82, piperidine-4-carboxylic acid {2-methyl-4-[5-(1-methyl-1H-pyrazol-4-yl)-[1,2,4]triazolo[1,5-a]pyrazin-2-ylamino]-phenyl}-amide], for which the 50% inhibitory concentration (IC50) was < 1000 nM in assay [1] and 1000 to 5000 nM in assay [2].
`COc1cccc(Nc2nc3cncc(-c4ccc5c(cnn5C)c4)n3n2)c1` [Compound A2]: the IC50 in assay [1] is < 1000 nM. Also, in assay [2], the “SYK (enzyme assay) % at 3 μM” value is on record as −29@3%.
For `Cc1cc(Nc2nc3cncc(-c4ccc5c(cnn5C)c4)n3n2)ccc1N1CCN(C)CC1` [Compound A4, [5-(1-methyl-1H-indazol-5-yl)-[1,2,4]triazolo[1,5-a]pyrazin-2-yl]-[3-methyl-4-(4-methyl-piperazin-1-yl)-phenyl]-amine], the IC50 in assay [1] and in assay [2] was < 1000 nM each time.
